{
  "source": "patent US8063101B2",
  "about": "“Carotenoid analogs and derivatives for the prevention of platelet aggregation” (Cardax Pharmaceuticals, Inc., priority 2007, dated 2011)",
  "tested_on": "left carotid artery (LCA) thrombosis",
  "assay": "Canine thrombosis model: left carotid artery reocclusion following rt-PA fibrinolytic therapy",
  "format": "in vivo, beagle dogs",
  "conditions": "for Incidence of Re-occlusion: 0.9% NaCl group 5/7; for Platelet Count (Post rt-PA) / Time to thrombolysis: mean±SEM; for reduction in thrombus weights compared to 0.9% NaCl solution: end of protocol",
  "protocol": "The experimental model used is a modification of that described by Hong, et al., (Thromb Res 117: 333-342, 2006), Rebello, et al., (Arterioscler Thromb Vasc Biol 18: 954-960, 1998), and Rote, et al. (Cardiovasc Res 27: 500-507, 1993). Healthy male or female purpose-bred beagle dogs (9-13 kg) were anesthetized with sodium pentobarbital (30 mg/kg, i.v.), intubated and ventilated with room air at a tidal volume of 30 ml/kg and a rate of 12 breaths per minute. The left carotid artery (LCA) was exposed by blunt dissection using care not to injure the vessel. An external adjustable stainless steel constrictor was shaped to fit each vessel and adjusted with a nylon screw (2 mm in diameter) to reduce the pulsatile flow pattern by 50% without altering the mean carotid artery blood flow rate. Vascular injury was accomplished with the application of a low anodal current to the intimal surface of the vessel via an intravascular electrode composed of a Teflon® insulated, silver-coated, copper wire. The intravascular electrode was connected to the positive pole (anode) of a dual-channel square wave generator (Grass S88 stimulator) and a Grass Constant Current Unit; model CCUIA (Grass Instrument Division, Astro-Med, Inc. West Warwick, R.I.). The cathode was attached at a remote subcutaneous site. The current (300 μA) applied to the intimal surface of the vessel was monitored continuously. The intravascular electrode and mechanical constrictor were upstream with respect to the flow probe. Blood flow in the carotid artery was quantified using a graded patency scoring system of 0-3 as described previously (16), in which a score of 0 represents no flow (total occlusion), 1-2 represents varying degrees of reduced and cyclic patterns of flow and 3 represents non-oscillatory or uninterrupted blood flow.\nFIG. 8 illustrates the experimental protocol. Twenty-eight dogs were randomized between four treatment groups receiving either DDA (10, 30 or 50 mg/kg i.v. n=7 per group) or 0.9% NaCl (n=7). Experimental thrombosis of the left carotid artery (LCA) was induced to achieve total occlusion of blood flow. Thirty minutes later, the animals received an intravenous infusion of DDA or an equivalent volume of 0.9% NaCl solution for thirty minutes (flow rate depended on dose of DDA). The drug treatment was followed by intra-carotid administration of rtPA (0.54 μg/kg bolus+3.26 μg/kg/h infusion) delivered immediately proximal to the occlusive thrombus. The infusion of rtPA was discontinued 10 min after establishing 20% of the original flow. The end-point determinations consisted of: (1) time to thrombolysis, (2) incidence of LCA reocclusion (secondary thrombosis), (3) vessel patency scores assessed by dynamic flow recordings, and (4) thrombus weight.\nThe data are expressed as mean±SEM and were analyzed by one-way analysis of variance for group comparisons followed by a Dunnett's post hoc t-test to determine the level of significance. The incidence of carotid artery reocclusion was compared between the groups by chi-square test. The change over time in the vessel blood flow patency score was compared between two groups by two-way analysis of variance followed by Bonferroni post-tests to determine the level of significance. Values are considered statistically different at p<0.05.",
  "key": {"[1]": {"conditions": "DDA 10 mg/kg i.v. followed by rt-PA"}, "[2]": {"conditions": "DDA 30 mg/kg i.v. followed by rt-PA"}, "[3]": {"conditions": "DDA 50 mg/kg i.v. followed by rt-PA"}},
  "data": [
    {"smiles": "CC1=C(/C=C/C(C)=C/C=C/C(C)=C/C=C/C=C(C)/C=C/C=C(C)/C=C/C2=C(C)C(=O)C(OC(=O)CCC(=O)O)CC2(C)C)C(C)(C)CC(OC(=O)CCC(=O)O)C1=O", "note": "(centres unmarked) [DDA, Disodium disuccinate astaxanthin]", "values": [
      {"measurement": "Incidence of Re-occlusion", "setting": "[1]", "result": "6/7"},
      {"measurement": "Platelet Count (Post rt-PA)", "setting": "[1]", "result": "352 ± 37"},
      {"measurement": "Time to thrombolysis", "setting": "[1]", "result": "20.3 ± 6.7", "unit": "min"},
      {"measurement": "arterial patency score (0-3)", "setting": "DDA 10 mg/kg, 0-30 min after rt-PA", "result": "1.4 ± 0.2"},
      {"measurement": "arterial patency score (0-3)", "setting": "DDA 10 mg/kg, 30-60 min after rt-PA", "result": "1.3 ± 0.4"},
      {"measurement": "arterial patency score (0-3)", "setting": "DDA 10 mg/kg, 60-90 min after rt-PA", "result": "1.1 ± 0.3"},
      {"measurement": "arterial patency score (0-3)", "setting": "DDA 10 mg/kg, 90-120 min after rt-PA", "result": "1.1 ± 0.4"},
      {"measurement": "arterial patency score (0-3)", "setting": "DDA 10 mg/kg, 120-150 min after rt-PA", "result": "0.4 ± 0.4"},
      {"measurement": "arterial patency score (0-3)", "setting": "DDA 10 mg/kg, 150-180 min after rt-PA", "result": "0.4 ± 0.4"},
      {"measurement": "Incidence of Re-occlusion", "setting": "[2]", "result": "3/7"},
      {"measurement": "Platelet Count (Post rt-PA)", "setting": "[2]", "result": "316 ± 32"},
      {"measurement": "Time to thrombolysis", "setting": "[2]", "result": "20.6 ± 7.9", "unit": "min"},
      {"measurement": "reduction in thrombus weights compared to 0.9% NaCl solution", "setting": "DDA 30 mg/kg i.v.", "result": "43±4", "unit": "%"},
      {"measurement": "arterial patency score (0-3)", "setting": "DDA 30 mg/kg, 0-30 min after rt-PA", "result": "1.3 ± 0.2"},
      {"measurement": "arterial patency score (0-3)", "setting": "DDA 30 mg/kg, 30-60 min after rt-PA", "result": "1.3 ± 0.4"},
      {"measurement": "arterial patency score (0-3)", "setting": "DDA 30 mg/kg, 60-90 min after rt-PA", "result": "1.0 ± 0.4"},
      {"measurement": "arterial patency score (0-3)", "setting": "DDA 30 mg/kg, 90-120 min after rt-PA", "result": "1.6 ± 0.5"},
      {"measurement": "arterial patency score (0-3)", "setting": "DDA 30 mg/kg, 120-150 min after rt-PA", "result": "1.1 ± 0.5"},
      {"measurement": "arterial patency score (0-3)", "setting": "DDA 30 mg/kg, 150-180 min after rt-PA", "result": "1.4 ± 0.5"},
      {"measurement": "Incidence of Re-occlusion", "setting": "[3]", "result": "1/7"},
      {"measurement": "Platelet Count (Post rt-PA)", "setting": "[3]", "result": "363 ± 66"},
      {"measurement": "Time to thrombolysis", "setting": "[3]", "result": "24.0 ± 6.0", "unit": "min"},
      {"measurement": "reduction in thrombus weights compared to 0.9% NaCl solution", "setting": "DDA 50 mg/kg i.v.", "result": "42±5", "unit": "%"},
      {"measurement": "arterial patency score (0-3)", "setting": "DDA 50 mg/kg, 0-30 min after rt-PA", "result": "1.9 ± 0.3"},
      {"measurement": "arterial patency score (0-3)", "setting": "DDA 50 mg/kg, 30-60 min after rt-PA", "result": "2.4 ± 0.3"},
      {"measurement": "arterial patency score (0-3)", "setting": "DDA 50 mg/kg, 60-90 min after rt-PA", "result": "2.3 ± 0.4"},
      {"measurement": "arterial patency score (0-3)", "setting": "DDA 50 mg/kg, 90-120 min after rt-PA", "result": "2.3 ± 0.5"},
      {"measurement": "arterial patency score (0-3)", "setting": "DDA 50 mg/kg, 120-150 min after rt-PA", "result": "2.3 ± 0.4"},
      {"measurement": "arterial patency score (0-3)", "setting": "DDA 50 mg/kg, 150-180 min after rt-PA", "result": "2.3 ± 0.5"},
      {"measurement": "time to clot lysis compared with 0.9% NaCl-treated animals", "setting": "DDA 10, 30 or 50 mg/kg followed by rt-PA", "result": "similar"},
      {"measurement": "whole blood platelet counts", "setting": "dog, in vivo", "result": "unaffected"},
      {"measurement": "vessel patency score during the protocol", "setting": "intermediate and highest doses of DDA (30 and 50 mg/kg)", "result": "progressive improvement"}
    ]}
  ]
}
